This assay addresses T1, TLR8 (Homo sapiens, UniProt Q9NR97).
T1 construct: host or cells: HEK293 (HEK-BLUE-hTLR8)
T1 sequence (Q9NR97 27-1041): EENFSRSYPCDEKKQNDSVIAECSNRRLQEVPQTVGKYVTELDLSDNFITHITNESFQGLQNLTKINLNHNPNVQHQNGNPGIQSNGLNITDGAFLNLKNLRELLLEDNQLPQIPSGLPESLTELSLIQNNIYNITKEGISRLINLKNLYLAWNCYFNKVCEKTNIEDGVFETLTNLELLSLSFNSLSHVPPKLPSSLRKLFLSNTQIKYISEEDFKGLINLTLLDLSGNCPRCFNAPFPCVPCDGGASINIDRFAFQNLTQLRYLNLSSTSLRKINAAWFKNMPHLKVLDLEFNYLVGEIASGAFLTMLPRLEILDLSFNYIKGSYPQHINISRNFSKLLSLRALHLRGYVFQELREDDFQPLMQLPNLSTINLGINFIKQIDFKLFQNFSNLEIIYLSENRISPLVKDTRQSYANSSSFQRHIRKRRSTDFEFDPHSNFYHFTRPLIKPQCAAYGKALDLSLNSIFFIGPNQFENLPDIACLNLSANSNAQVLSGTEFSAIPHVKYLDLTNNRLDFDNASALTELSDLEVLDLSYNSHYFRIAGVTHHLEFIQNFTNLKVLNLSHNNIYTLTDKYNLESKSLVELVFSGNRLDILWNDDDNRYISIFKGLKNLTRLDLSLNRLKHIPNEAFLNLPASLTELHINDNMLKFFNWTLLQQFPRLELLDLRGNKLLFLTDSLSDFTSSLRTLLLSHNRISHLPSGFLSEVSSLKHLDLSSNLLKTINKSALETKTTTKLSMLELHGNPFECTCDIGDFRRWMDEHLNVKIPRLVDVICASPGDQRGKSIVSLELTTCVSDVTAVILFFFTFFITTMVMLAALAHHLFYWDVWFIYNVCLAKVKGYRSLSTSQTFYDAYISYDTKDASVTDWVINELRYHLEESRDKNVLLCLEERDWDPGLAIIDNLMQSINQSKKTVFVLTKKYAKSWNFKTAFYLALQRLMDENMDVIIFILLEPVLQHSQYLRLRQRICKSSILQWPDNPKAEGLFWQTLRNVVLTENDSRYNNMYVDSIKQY
Kind of assay: HEK-BLUE-hTLR8 cell SEAP reporter assay (Quanti-Blue). The format is cell-based. As to conditions: HEK-BLUE-hTLR8 cells, 0.5 nM to 15 µM, 24 hours. How it is done: In this experiment, the biological activity of TLR7 and TLR8 in the compound of formula I was detected using cell tests. This method was conducted in human embryonic kidney cells (HEK293) expressing TLR family members such as TLR4, TLR7, TLR8 or TLR9. TLR agonists activate TLRs, triggering the activation of downstream NF-kB, which in turn activates the secreted embryonic alkaline phosphatase (SEAP) reporter gene. The activity of SEAP was detected using the Quanti-Blue (InvivoGen) reagent, thereby reflecting the activities of TLR7 and TLR8 agonists.
The detailed experimental method was as follows: HEK-BLUE-hTLR7 and HEK-BLUE-hTLR8 cell lines were purchased from Invivogen Company and cultured in DMEM medium containing 4.5 g/L glucose (Sigma-Aldrich) and 10% fetal bovine serum under the conditions of temperature 37°C, humidity 95% and 5% CO2.
The compound was tested at a concentration ranging from 0.5 nM to 15 µM over a total of 10 concentration gradients. TLR7 or TLR8 agonists with known activity were added as positive controls, and 1 µL of DMSO was added as a negative control.
The cells were treated as follows: the cells were removed from the culture dish and centrifuged to remove the medium, and resuspended in a T-150 bottle with 10 mL of preheated PBS, 12 mL of preheated medium was added, and the cells were gently pipetted up and down and counted under a microscope. A 200,000/mL single-cell suspension was immediately prepared with medium and added to a 96-well plate at 200 µL/well (40,000/well). The final concentration of DMSO was 0.5%.
The compound was added and incubated in an incubator at 37°C, 5% CO2 for 24 hours.
A supernatant at 20 µL/well was aspirated into 180 µL of preheated Quanti-Blue at 37°C, incubated at 37°C for 1.5 hours, and detected for the absorbance (OD value) with a spectrophotometer at 650 nm. The formula for calculating the agonistic effect is as follows:
Effect % = (average OD value of the drug-administered group - average OD value of the DMSO group) / (average OD value of the positive drug group - average OD value of the DMSO group) × 100
Graphpad software was used to fit the concentration-effect curve, and EC50 was calculated. The test results are shown in Table 15 (A denotes < 250 nM, B denotes 250 nM-1 µM, C denotes 1 µM-2 µM, D denotes > 2 µM, and - denotes not listed or not tested): Table 15
In turn, `CCCN(OCC)C(=O)C1=Cc2ccc(C3(C(=O)Nc4cnc5c(c4)CN(C(=O)CCOCCOCCOCCOCCOCCOCCNC(=O)CCN4C(=O)C=CC4=O)CC5)CC3)cc2N=C(N)C1` [II-66, 2-amino-8-(1-((6-(1-(2,5-dioxo-2,5-dihydro-1H-pyrrol-1-yl)-3-oxo-7,10,13,16,19,22-hexaoxa-4-azapentacosan-25-acyl)-5,6,7,8-tetrahydro-1,6-naphthyridin-3-yl)carbamoyl)cyclopropyl)-N-ethoxy-N-propyl-3H-benzo[b]azepine-4-formamide] yielded a half-maximal effective concentration (EC50) of 0.25 to 1 µM.
The value for `CCCN(CCC)C(=O)C1=Cc2c(F)cc(C3(C(=O)Nc4cncc(CN)c4)CC3)cc2N=C(N)C1` [Compound 13, 2-amino-8-(1-((5-(aminomethyl)pyridin-3-yl)carbamoyl)cyclopropyl)-6-fluoro-N,N-dipropyl-3H-benzo[b]azepine-4-formamide] was below 0.25 µM; that for `CCCN(CCO)C(=O)C1=Cc2ccc(C3(C(=O)NCc4ccc(N)cc4)CC3)cc2N=C(N)C1` [Compound 17, 2-amino-8-(1-((4-aminobenzyl)carbamoyl)cyclopropyl)-N-(2-hydroxyethyl)-N-propyl-3H-benzo[b]azepine-4-formamide] was below 0.25 µM; that for `CCCN(CCO)C(=O)C1=Cc2ccc(C3(C(=O)Nc4cnc5c(c4)CN(C(=O)OCc4ccc(NC(=O)[C@H](CC(N)=O)NC(=O)[C@H](C)NC(=O)[C@H](C)NC(=O)CCCCCN6C(=O)C=CC6=O)cc4)CC5)CC3)cc2N=C(N)C1` [II-96] was 0.25 to 1 µM.
On to `CCCN(CCO)C(=O)C1=Cc2ccc(C3(C(=O)NCc4cccc(N)c4)CC3)cc2N=C(N)C1` [Compound 18, 2-amino-8-(1-((3-aminobenzyl)carbamoyl)cyclopropyl)-N-(2-hydroxyethyl)-N-propyl-3H-benzo[b]azepine-4-formamide], for which the EC50 was below 0.25 µM.
The value for `CCCN(CCO)C(=O)C1=Cc2ccc(C3(C(=O)Nc4cnc5c(c4)CN(C(=O)C4COC(CN6C(=O)C=CC6=O)OC4)CC5)CC3)cc2N=C(N)C1` (single isomer, unassigned) [II-77, 2-amino-8-(1-((6-(2-((2,5-dioxo-2,5-dihydro-1H-pyrrol-1-yl)methyl)-1,3-dioxan-5-carbonyl)-5,6,7,8-tetrahydro-1,6-naphthyridin-3-yl)carbamoyl)cyclopropyl)-N-(2-hydroxyethyl)-N-propyl-3H-benzo[b]azepine-4-formamide] was 0.25 to 1 µM; that for `CCCN(CCC)C(=O)C1=Cc2ccc(C3(C(=O)Nc4cncc(CN)c4)CC3)cc2N=C(N)C1` [Compound 16] was below 0.25 µM; that for `CCCN(CCO)C(=O)C1=Cc2ccc(C3(C(=O)Nc4cnc5c(c4)CN(C(=O)OCc4ccc(O[C@@H]6O[C@H](C(=O)O)[C@@H](O)[C@H](O)[C@H]6O)c(NC(=O)CNC(=O)CCCCCN6C(=O)C=CC6=O)c4)CC5)CC3)cc2N=C(N)C1` [II-36, (2S,3S,4S,5R,6S)-6-(4-(((3-(1-(2-amino-4-((2-hydroxyethyl)(propyl)carbamoyl)-3H-benzo[b]azepin-8-yl)cyclopropyl-1-formylamino)-5,6,7,8-tetrahydro-1,6-naphthyridine-6-carbonyl)oxy)methyl)-2-(2-(6-(2,5-dioxo-2,5-dihydro-1H-pyrrol-1-yl)hexanoylamino)acetylamino)phenoxy)-3,4,5-trihydroxytetrahydro-2H-pyran-2-carboxylic acid] was below 0.25 µM.
The value for `CCCN(CCO)C(=O)C1=Cc2ccc(C3(C(=O)Nc4cnc5c(c4)CN(C(=O)OCc4ccc(NC(=O)[C@H](CCCNC(N)=O)NC(=O)[C@@H](NC(=O)C6COC(CN7C(=O)C=CC7=O)OC6)C(C)C)cc4)CC5)CC3)cc2N=C(N)C1` (stereo partly shown) [II-98] was 0.25 to 1 µM; that for `CCCN(CCO)C(=O)C1=Cc2ccc(C3(C(=O)Nc4cncc(N)c4)CC3)cc2N=C(N)C1` [Compound 20, 2-amino-8-(1-((5-aminopyridin-3-yl)carbamoyl)cyclopropyl)-N-(2-hydroxyethyl)-N-propyl-3H-benzo[b]azepine-4-formamide] was 0.25 to 1 µM; that for `CCCN(CCO)C(=O)C1=Cc2ccc(C3(C(=O)Nc4cccc(N)c4)CC3)cc2N=C(N)C1` [Compound 19, 2-amino-8-(1-((3-aminophenyl)carbamoyl)cyclopropyl)-N-(2-hydroxyethyl)-N-propyl-3H-benzo[b]azepine-4-formamide] was below 0.25 µM.
The value for `CCCN(CCO)C(=O)C1=Cc2ccc(C3(C(=O)Nc4cnc5c(c4)CN(C(=O)[C@H](CCCNC(N)=O)NC(=O)[C@@H](N)C(C)C)CC5)CC3)cc2N=C(N)C1` [Example 33, 2-amino-8-(1-((6-((S)-2-((S)-2-amino-3-methylbutanoylamino)-5-ureidopentanoyl)-5,6,7,8-tetrahydro-1,6-naphthyridin-3-yl)carbamoyl)cyclopropyl)-N-(2-hydroxyethyl)-N-propyl-3H-benzo[b]azepine-4-formamide] was below 0.25 µM; that for `CCCN(CCOP(=O)(N[C@@H](C)C(=O)OCc1ccccc1)Oc1ccccc1)C(=O)C1=Cc2ccc(C3(C(=O)Nc4cnc5c(c4)CNCC5)CC3)cc2N=C(N)C1` (single isomer, unassigned) [Compound 25-1] was below 0.25 µM; that for `CCCN(CCO)C(=O)C1=Cc2ccc(C3(C(=O)Nc4cnc5c(c4)CN(C(=O)OCc4ccc(NC(=O)CCOCCOCCNC(=O)CCN6C(=O)C=CC6=O)cc4)CC5)CC3)cc2N=C(N)C1` [II-28, 4-(3-(2-(2-(3-(2,5-dioxo-2,5-dihydro-1H-pyrrol-1-yl)propionylamino)ethoxy)ethoxy)propionylamino)benzyl 3-(1-(2-amino-4-((2-hydroxyethyl)(propyl)carbamoyl)-3H-benzo[b]azepin-8-yl)cyclopropane-1-formylamino)-7,8-dihydro-1,6-naphthyridine-6(5H)-carboxylate] was 0.25 to 1 µM.
Turning to `CCCN(CCO)C(=O)C1=Cc2ccc(C3(C(=O)Nc4cnc5c(c4)CN(C(=O)CCOCCOCCOCCOCCOCCOCCNC(=O)[C@H](CCCNC(N)=O)NC(=O)[C@@H](NC(=O)CCCCCN4C(=O)C=CC4=O)C(C)C)CC5)CC3)cc2N=C(N)C1` [II-18, 2-amino-8-(1-((6-((24S,27S)-34-(2,5-dioxo-2,5-dihydro-1H-pyrrol-1-yl)-27-isopropyl-23,26,29-trioxo-24-(3-ureidopropyl)-4,7,10,13,16,19-hexaoxa-22,25,28-triazatetratriacontanacyl)-5,6,7,8-tetrahydro-1,6-naphthyridin-3-yl)carbamoyl)cyclopropyl)-N-(2-hydroxyethyl)-N-propyl-3H-benzo[b]azepine-4-formamide], the EC50 lay within 0.25 to 1 µM.
Molecule `CCCN(CCO)C(=O)C1=Cc2ccc(C3(C(=O)Nc4cnc5c(c4)CN(C(=O)CCOCCOCCNC(=O)[C@H](CCCNC(N)=O)NC(=O)[C@@H](NC(=O)CCCCCN4C(=O)C=CC4=O)C(C)C)CC5)CC3)cc2N=C(N)C1` [II-17, 2-amino-8-(1-((6-((12S,15S)-22-(2,5-dioxo-2,5-dihydro-1H-pyrrol-1-yl)-15-isopropyl-11,14,17-trioxo-12-(3-ureidopropyl)-4,7-dioxa-10,13,16-triazabehenoyl)-5,6,7,8-tetrahydro-1,6-naphthyridin-3-yl)carbamoyl)cyclopropyl)-N-(2-hydroxyethyl)-N-propyl-3H-benzo[b]azepine-4-formamide] gave an EC50 of 0.25 to 1 µM.

The values above are taken from patent publication EP4596536A1 (Shanghai de Novo Pharmatech Co., Ltd., priority 2022, dated 2024).
